The text below walks through data of ChEMBL document CHEMBL1135057, “A combinatorial library of indinavir analogues and its in vitro and in vivo studies” (Bioorg Med Chem Lett, 2002).

Some results are limits rather than exact numbers.

Data set [1] concerns Human immunodeficiency virus 1. As to the kind of experiment: Inhibition of the spread of viral infection in MT-4 human T-lymphoid cells infected by IIIb isolate. Particulars: read-out: CIC95. Format: functional.
The target of data set [2] is T1, Human immunodeficiency virus type 1 protease (Human immunodeficiency virus 1, UniProt Q72874). As to the kind of experiment: In vitro inhibitory activity against mutant HIV-1 (A-44)protease.
Data set [3] addresses T1, Human immunodeficiency virus type 1 protease. As to the kind of experiment: In vitro inhibitory activity against wild type HIV-1 protease.
Data set [4] can be described thus: Tested for the pharmacokinetic data, maximum concentration (Cmax) in dog. It counts as ADME, organism-based, Canis lupus familiaris. Particulars: in vivo.
Data set [5] is described as follows: Tested for the half life period in dog. It counts as ADME, organism-based, Canis lupus familiaris. The note with it: in vivo.
Data set [6] in a line: Tested for the pharmacokinetic data, area under the curve of concentration versus time in dog. Format: ADME, organism-based, Canis lupus familiaris. The note with it: in vivo.
For another data set, the species on record is Canis familiaris. As to the kind of experiment: Tested for the pharmacokinetic data, time required to reach Cmax (Tmax) in dog. Format: ADME, organism-based, Canis lupus familiaris. Particulars: in vivo.
[7] abbreviates: Human immunodeficiency virus 1, T-lymphoid.

In the case of `CC(C)(C)NC(=O)[C@@H]1CN(Cc2nc3ccccc3o2)CCN1C[C@@H](O)C[C@@H](Cc1ccccc1)C(=O)N[C@@H]1c2ccccc2C[C@H]1O`, the IC95 in data set [1] (setting [7]) was 400 nM. Further, the 50% inhibitory concentration (IC50) in data set [2] came out at 66 nM; in data set [3], 1.2 nM.
On to `CC1=CSC2C(CN3CCN(C[C@@H](O)C[C@@H](Cc4ccccc4)C(=O)N[C@@H]4c5ccccc5C[C@H]4O)[C@H](C(=O)NC(C)(C)C)C3)N=CN12` (some centres not stated), for which the IC95 in data set [1] (setting [7]) is > 400 nM. Further, the IC50 is 378 nM in data set [2] and 6.7 nM in data set [3].
On to `Cn1nc(C(F)(F)F)cc1-c1ccc(CN2CCN(C[C@@H](O)C[C@@H](Cc3ccccc3)C(=O)N[C@@H]3c4ccccc4C[C@H]3O)[C@H](C(=O)NC(C)(C)C)C2)s1`, for which, in data set [1] (setting [7]), the IC95 amounted to 25 nM. Besides, the concentration for half-maximal inhibition (IC50) in data set [2] was determined as 0.6 nM; in data set [3] it was 0.13 nM.
Taken in the same sequence, the figures for `CC(C)(C)NC(=O)[C@@H]1CN(Cc2cc3cc(F)ccc3o2)CCN1C[C@@H](O)C[C@@H](Cc1ccccc1)C(=O)N[C@@H]1c2ccccc2C[C@H]1O` were 200 nM, 46 nM and 0.94 nM.
`CC(C)(C)NC(=O)[C@@H]1CN(Cc2cccnc2)CCN1C[C@@H](O)C[C@@H](Cc1cccnc1)C(=O)N[C@@H]1c2ccccc2C[C@H]1O`: the peak level in data set [4] (Cmax) was 313 nM. The compound further had a half-life in data set [5] of 43.4 min. The same compound gave an area under the curve (AUC) in data set [6] of 0.291 µM·h. In the data set listed under Canis familiaris, this compound showed a T max of 40 min.
For `CC(C)(C)NC(=O)[C@@H]1CN(CCCC(F)(F)F)CCN1C[C@@H](O)C[C@@H](Cc1ccccc1)C(=O)N[C@@H]1c2ccccc2C[C@H]1O`, in data set [1] (setting [7]), the IC95 is > 400 nM. Moreover, the IC50 in data set [2] turned out to be 568 nM; in data set [3], 15.3 nM.
Taken in the same sequence, the figures for `CC(C)(C)NC(=O)[C@@H]1CN(Cc2cc3ccccc3o2)CCN1C[C@@H](O)C[C@@H](Cc1ccccc1)C(=O)NC1c2ccccc2C[C@H]1O` (some centres not stated) were 50 nM, 24 nM and 0.49 nM.
With `Cn1cc(CN2CCN(C[C@@H](O)C[C@@H](Cc3ccccc3)C(=O)N[C@@H]3c4ccccc4C[C@H]3O)[C@H](C(=O)NC(C)(C)C)C2)c2ccccc21`, the IC95 in data set [1] (setting [7]) was > 400 nM. The IC50 in data set [2] amounted to 332 nM; in data set [3], 6.7 nM.
Taken in the same sequence, the figures for `CC(C)(C)NC(=O)[C@@H]1CN(CC2(c3ccccc3)CC2)CCN1C[C@@H](O)C[C@@H](Cc1ccccc1)C(=O)N[C@@H]1c2ccccc2C[C@H]1O` were > 400 nM, 257 nM and 7.7 nM.
`C[C@@H]1CC[C@@H](O)[C@@H]1NC(=O)[C@H](Cc1ccc(F)cc1)C[C@H](O)CN1CCN(Cc2cccnc2)C[C@H]1C(=O)NC(C)(C)C`: in data set [4], the Cmax was 378 nM. Besides, the half-life in data set [5] is 39.2 min. Further, the exposure (AUC) in data set [6] came to 0.371 µM·h. The compound also came in with a T max in the data set filed under Canis familiaris of 40 min.
For the compound `Cn1cc(CN2CCN(C[C@@H](O)C[C@@H](Cc3ccccc3)C(=O)N[C@@H]3c4ccccc4C[C@H]3O)[C@H](C(=O)NC(C)(C)C)C2)ccc1=O`, the IC95 in data set [1] (setting [7]) was 400 nM. The IC50 in data set [2] is 131 nM; in data set [3], 2.2 nM.
`CC(C)(C)NC(=O)[C@@H]1CN(Cc2cccnc2)CCN1C[C@@H](O)C[C@@H](Cc1ccc(F)cc1)C(=O)N[C@@H]1c2cccc(F)c2C[C@H]1O` had a Cmax in data set [4] of 195 nM. In data set [5], this compound registered a half-life of 48.2 min. Further, the AUC in data set [6] was determined as 0.197 µM·h. The T max in the data set listed under Canis familiaris was determined as 40 min.
On to `CN(C)c1ccc2ccc(S(=O)(=O)N3CCN(C[C@@H](O)C[C@@H](Cc4ccccc4)C(=O)N[C@@H]4c5ccccc5C[C@H]4O)[C@H](C(=O)NC(C)(C)C)C3)cc2n1`, for which the IC95 in data set [1] (setting [7]) came out at 50 nM. For the same compound, the half-inhibitory concentration (IC50) in data set [2] was 2.2 nM; in data set [3], 0.22 nM.
Turning to `CC(C)(C)NC(=O)[C@@H]1CN(Cc2ncc(-c3ccccc3)s2)CCN1C[C@@H](O)C[C@@H](Cc1ccccc1)C(=O)N[C@@H]1c2ccccc2C[C@H]1O`, the IC95 in data set [1] (setting [7]) is 50 nM. For the same compound, the IC50 in data set [2] was found to be 2 nM; in data set [3], 0.26 nM.
Take `CC(C)(C)NC(=O)[C@@H]1CN(Cc2noc3ccccc23)CCN1C[C@@H](O)C[C@@H](Cc1ccccc1)C(=O)NC1c2ccccc2C[C@H]1O` (some centres not stated): in data set [1] (setting [7]), the IC95 was determined as 400 nM. In addition, the half-maximal inhibitory concentration (IC50) in data set [2] came to 71.5 nM; in data set [3], 1.17 nM.
On to `CC(C)(C)NC(=O)[C@@H]1CN(Cc2nc3ccccc3s2)CCN1C[C@@H](O)C[C@@H](Cc1ccccc1)C(=O)N[C@@H]1c2ccccc2C[C@H]1O`, for which the IC95 in data set [1] (setting [7]) came to 400 nM. The values for the IC50 in data set [2] and in data set [3] were 71.7 nM and 1.2 nM, respectively.
Regarding `CC(C)(C)NC(=O)[C@@H]1CN(Cc2cccc(C(C)(C)NC(=O)OC(C)(C)C)c2)CCN1C[C@@H](O)C[C@@H](Cc1ccccc1)C(=O)N[C@@H]1c2ccccc2C[C@H]1O`, the IC95 in data set [1] (setting [7]) is > 400 nM. Also, the values for the half-inhibitory concentration (IC50) in data set [2] and in data set [3] were 392 nM and 28 nM, respectively.
Consider `CC(C)(C)NC(=O)[C@@H]1CN(Cc2cccnc2)CCN1C[C@@H](O)C[C@@H](CC1CCCCC1)C(=O)NC1c2cccc(F)c2C[C@H]1O` (single isomer, unassigned), for which, in data set [4], the maximum concentration (Cmax) worked out at 148 nM. The compound also showed a half-life in data set [5] of 48.2 min. Moreover, the exposure (AUC) in data set [6] was determined as 0.236 µM·h. In the data set listed under Canis familiaris, this compound displayed a T max of 40 min.
Regarding `C[C@@H]1CC[C@@H](O)C1NC(=O)[C@H](Cc1cccnc1)C[C@H](O)CN1CCN(Cc2cccnc2)C[C@H]1C(=O)NC(C)(C)C` (single isomer, unassigned), the Cmax in data set [4] stood at 524 nM. Also, in data set [5], the half-life amounted to 23.4 min. The same compound displayed an AUC in data set [6] of 0.464 µM·h. Moreover, the T max in the data set listed under Canis familiaris came out at 40 min.
The compound `CC(C)(C)NC(=O)[C@@H]1CN(Cc2cccnc2)CCN1C[C@@H](O)C[C@@H](Cc1ccc(F)cc1)C(=O)NC1c2cccc(Cl)c2C[C@H]1O` (single isomer, unassigned) came in with a Cmax in data set [4] of 180 nM. This compound returned a half-life in data set [5] of 50.5 min. In data set [6], the area under the curve (AUC) was determined as 0.181 µM·h. Besides, the T max in the data set filed under Canis familiaris was 40 min.
In data set [4], `CC(C)(C)NC(=O)[C@@H]1CN(Cc2cccnc2)CCN1C[C@@H](O)C[C@@H](Cc1cccnc1)C(=O)NC1c2cccc(Cl)c2C[C@H]1O` (single isomer, unassigned) displayed a peak concentration (Cmax) of 220 nM. The compound further registered a half-life in data set [5] of 23.9 min. The exposure (AUC) in data set [6] came to 0.227 µM·h. The T max in the data set listed under Canis familiaris is 40 min.
`C[C@@H]1CC[C@@H](O)C1NC(=O)[C@H](Cc1ccccc1)C[C@H](O)CN1CCN(Cc2cccnc2)C[C@H]1C(=O)NC(C)(C)C` (single isomer, unassigned) registered a Cmax in data set [4] of 554 nM. This compound also had a half-life in data set [5] of 31.5 min. This compound gave an AUC in data set [6] of 0.512 µM·h. In addition, the T max in the data set filed under Canis familiaris is 40 min.
Taken in the same sequence, the figures for `CC(C)(C)NC(=O)[C@@H]1CN(Cc2cccnc2)CCN1C[C@@H](O)C[C@@H](Cc1cccnc1)C(=O)NC1c2cccc(F)c2C[C@H]1O` (single isomer, unassigned) were 268 nM, 28.7 min, 0.245 µM·h and 40 min.
`CC(C)(C)NC(=O)[C@@H]1CN(Cc2cccnc2)CCN1C[C@@H](O)C[C@@H](Cc1ccc(F)cc1)C(=O)NC1c2ccccc2C[C@H]1O` (single isomer, unassigned) yielded a Cmax in data set [4] of 264 nM. Moreover, the half-life in data set [5] was determined as 44.6 min. Also, the area under the curve (AUC) in data set [6] was determined as 0.258 µM·h. This compound also showed a T max in the data set filed under Canis familiaris of 40 min.
Taken in the same sequence, the figures for `CC(C)(C)NC(=O)[C@@H]1CN(Cc2cccnc2)CCN1C[C@@H](O)C[C@@H](Cc1ccccc1)C(=O)NC1c2cccc(F)c2C[C@H]1O` (single isomer, unassigned) were 250 nM, 44.5 min, 0.258 µM·h and 40 min.
The compound `CC(C)(C)NC(=O)[C@@H]1CN(Cc2cccnc2)CCN1C[C@@H](O)C[C@@H](CC1CC1)C(=O)NC1c2ccccc2C[C@H]1O` (single isomer, unassigned) returned a peak concentration (Cmax) in data set [4] of 651 nM. This compound also gave a half-life in data set [5] of 21.2 min. In data set [6], this compound gave an exposure (AUC) of 0.566 µM·h. For the same compound, in the data set filed under Canis familiaris, the T max turned out to be 40 min.
`CC(C)(C)NC(=O)[C@@H]1CN(Cc2cccnc2)CCN1C[C@@H](O)C[C@@H](CC1CCCCC1)C(=O)NC1c2ccccc2C[C@H]1O` (single isomer, unassigned) showed a maximum concentration (Cmax) in data set [4] of 232 nM. In addition, in data set [5], the half-life was found to be 54.4 min. The compound further yielded an area under the curve (AUC) in data set [6] of 0.26 µM·h. The compound also showed a T max in the data set listed under Canis familiaris of 40 min.
Taken in the same sequence, the figures for `CC(C)(C)NC(=O)[C@@H]1CN(Cc2cccnc2)CCN1C[C@@H](O)C[C@@H](CC1CC1)C(=O)NC1c2cccc(Cl)c2C[C@H]1O` (single isomer, unassigned) were 626 nM, 23 min, 0.566 µM·h and 40 min.
As to `CC(C)(C)NC(=O)[C@@H]1CN(Cc2cccnc2)CCN1C[C@@H](O)C[C@@H](CC1CC1)C(=O)NC1c2cccc(F)c2C[C@H]1O` (single isomer, unassigned), the peak concentration (Cmax) in data set [4] is 610 nM. This compound also had a half-life in data set [5] of 20.2 min. This compound showed an exposure (AUC) in data set [6] of 0.525 µM·h. In the data set listed under Canis familiaris, this compound displayed a T max of 40 min.
Taken in the same sequence, the figures for `CC(C)(C)NC(=O)[C@@H]1CN(Cc2cccnc2)CCN1C[C@@H](O)C[C@@H](Cc1ccccc1)C(=O)NC1c2cccc(Cl)c2C[C@H]1O` (single isomer, unassigned) were 250 nM, 45.8 min, 0.256 µM·h and 40 min.
Turning to `CC(C)(C)NC(=O)[C@@H]1CN(Cc2cccnc2)CCN1C[C@@H](O)C[C@@H](Cc1ccccc1)C(=O)NC1c2ccccc2C[C@H]1O.O` (single isomer, unassigned) [INDINAVIR], the peak concentration (Cmax) in data set [4] came to 358 nM. In data set [5], this compound returned a half-life of 27.1 min. In data set [6], the AUC came to 0.307 µM·h. In addition, the IC95 is 50 nM in data set [1] (setting [7]) and 50.5 nM in data set [1]. The T max in the data set filed under Canis familiaris was determined as 40 min.
